Where a name gives a salt, the structure may show the parent alone. Read-outs that look alike come from different tables or passages of the source.
Columns and labels:
TLR7 = molecular target: T1, TLR7 (Homo sapiens, UniProt Q9NYK1); assay: In vitro human TLR7 binding reporter assay (HEK-Blue, NF-kB/AP1-inducible SEAP); assay type: cell-based; settings: read-out: TLR7 Agonist EC50
T1 construct: human HEK-Blue cells co-expressing a TLR7 or TLR8 gene
T1 sequence (Q9NYK1 27-1049): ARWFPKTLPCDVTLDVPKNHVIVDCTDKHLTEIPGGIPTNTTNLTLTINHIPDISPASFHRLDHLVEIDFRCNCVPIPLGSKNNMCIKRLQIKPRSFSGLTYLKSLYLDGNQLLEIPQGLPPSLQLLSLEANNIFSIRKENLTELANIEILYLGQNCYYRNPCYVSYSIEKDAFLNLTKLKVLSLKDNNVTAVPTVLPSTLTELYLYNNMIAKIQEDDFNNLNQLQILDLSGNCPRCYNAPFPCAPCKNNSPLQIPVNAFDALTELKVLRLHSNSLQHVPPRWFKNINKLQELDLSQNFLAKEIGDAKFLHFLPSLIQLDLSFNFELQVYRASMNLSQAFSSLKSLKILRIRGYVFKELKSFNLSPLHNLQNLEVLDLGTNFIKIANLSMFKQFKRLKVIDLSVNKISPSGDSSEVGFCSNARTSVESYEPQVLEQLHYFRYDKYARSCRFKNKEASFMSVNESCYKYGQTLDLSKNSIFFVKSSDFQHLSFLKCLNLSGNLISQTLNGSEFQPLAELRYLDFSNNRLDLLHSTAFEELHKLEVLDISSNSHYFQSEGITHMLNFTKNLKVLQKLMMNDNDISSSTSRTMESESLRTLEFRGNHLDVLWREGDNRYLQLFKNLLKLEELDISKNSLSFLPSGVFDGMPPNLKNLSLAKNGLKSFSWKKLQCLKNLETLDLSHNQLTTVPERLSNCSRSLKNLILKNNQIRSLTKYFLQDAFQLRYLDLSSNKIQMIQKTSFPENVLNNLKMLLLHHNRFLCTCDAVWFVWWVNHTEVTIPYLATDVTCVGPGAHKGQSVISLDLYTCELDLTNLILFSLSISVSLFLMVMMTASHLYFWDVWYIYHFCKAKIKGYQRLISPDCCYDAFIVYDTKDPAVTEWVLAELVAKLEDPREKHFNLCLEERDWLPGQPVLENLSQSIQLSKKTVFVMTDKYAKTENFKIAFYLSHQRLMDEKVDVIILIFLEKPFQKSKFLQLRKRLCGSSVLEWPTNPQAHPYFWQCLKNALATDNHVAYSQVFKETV
Method in brief: (§1)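 EC50s come from NF-kB/AP1-driven SEAP secretion in HEK-Blue cells expressing TLR7 or TLR8, measured with Quanti-Blue after an 18 h compound incubation. Maximal response is defined by a 50 μM reference standard.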

TLR8 = molecular target: T2, TLR8 (Homo sapiens, UniProt Q9NR97); assay: In vitro human TLR8 binding reporter assay (HEK-Blue, NF-kB/AP1-inducible SEAP); assay type: cell-based; settings: read-out: TLR8 Agonist EC50
T2 construct: human HEK-Blue cells co-expressing a TLR7 or TLR8 gene
T2 sequence (Q9NR97 27-1041): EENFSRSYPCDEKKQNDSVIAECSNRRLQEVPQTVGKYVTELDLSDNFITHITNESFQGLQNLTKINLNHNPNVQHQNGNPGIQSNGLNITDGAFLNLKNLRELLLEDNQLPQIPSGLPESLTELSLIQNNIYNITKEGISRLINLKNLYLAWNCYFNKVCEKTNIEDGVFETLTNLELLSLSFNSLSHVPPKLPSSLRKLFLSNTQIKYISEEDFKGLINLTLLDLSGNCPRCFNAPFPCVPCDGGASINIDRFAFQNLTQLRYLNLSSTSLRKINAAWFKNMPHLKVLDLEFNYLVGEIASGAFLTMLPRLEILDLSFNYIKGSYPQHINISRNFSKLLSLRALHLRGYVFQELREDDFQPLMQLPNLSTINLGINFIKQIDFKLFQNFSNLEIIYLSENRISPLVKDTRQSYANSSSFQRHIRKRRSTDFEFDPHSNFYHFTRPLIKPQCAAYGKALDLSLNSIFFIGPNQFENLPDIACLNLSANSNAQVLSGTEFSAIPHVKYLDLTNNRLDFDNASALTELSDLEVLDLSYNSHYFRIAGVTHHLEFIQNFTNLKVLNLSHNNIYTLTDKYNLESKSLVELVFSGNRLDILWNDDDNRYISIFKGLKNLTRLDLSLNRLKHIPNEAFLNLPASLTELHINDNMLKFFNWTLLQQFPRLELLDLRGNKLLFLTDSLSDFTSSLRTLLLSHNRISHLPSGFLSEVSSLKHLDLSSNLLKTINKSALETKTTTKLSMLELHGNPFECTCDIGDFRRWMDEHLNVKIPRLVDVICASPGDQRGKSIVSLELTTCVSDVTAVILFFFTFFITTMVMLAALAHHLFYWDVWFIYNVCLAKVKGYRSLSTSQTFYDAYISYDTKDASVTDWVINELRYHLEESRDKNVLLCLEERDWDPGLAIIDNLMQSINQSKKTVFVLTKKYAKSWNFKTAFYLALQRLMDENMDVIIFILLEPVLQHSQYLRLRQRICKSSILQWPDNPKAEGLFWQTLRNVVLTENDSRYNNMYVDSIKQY
Method in brief: as §1

THP-1 cells = assay: Measurement of IL-1β production, hTRF protocol (second alternative procedure), THP-1 cells; assay type: cell-based, human; settings: read-out: NLRP3 hILIB EC50
Method in brief: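 Compounds, dilution series starting at a final 10 μM, were incubated 2 hours at 37° C with PMA-differentiated THP-1 cells (50 ng/ml overnight; 50,000 cells/well, 2% FBS RPMI). Released IL-1β quantified in supernatant by hTRF kit with 1:40 antibody dilution, 4° C overnight, 665/615 nm ratio.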

[1] = Homo sapiens, THP-1, IL-1β production, human
[2] = Homo sapiens, THP-1, IL-1β production, human cells

Row | Structure (SMILES) | EC50 (TLR7; activity range class) | EC50 (TLR8; activity range class) | EC50 (THP-1 cells; [1]) | EC50 (TLR7; activity range) | EC50 (TLR8; activity range) | EC50 (THP-1 cells; [2]) | EC50 (THP-1 cells; IL-1β production, human cells)
1 | Nc1nc2cc(-n3cccn3)ccc2c2cn(CC3CCCCO3)nc12 (stereo not drawn) [Example 18] | 20 to 100 µM | > 100 µM | 1.13 µM | – | – | – | –
2 | CCC(O)Cn1cc2c(N)nc3cc(-c4cc[nH]n4)ccc3c2n1 (stereo not drawn) [Example 366] | > 100 µM | > 100 µM | 0.42 µM | – | – | – | –
3 | CC(=O)NC(C)Cn1ncc2c(N)nc3cc(-c4cc[nH]n4)ccc3c21 (stereo not drawn) [Example 429] | – | – | – | > 100 µM | > 100 µM | 13 µM | –
4 | Nc1nc2cc(-c3cc[nH]n3)ccc2c2nn(C3CCOCC3)cc12 [Example 236] | > 100 µM | > 100 µM | 0.79 µM | – | – | – | –
5 | Nc1nc2cc(-c3cc[nH]n3)ccc2c2nn(CCC(=O)N3CCOCC3)cc12 [Example 501] | – | – | – | > 100 µM | > 100 µM | 0.73 µM | –
6 | CC(C)(C)c1cccc(C(=O)NCCc2cc3c(N)nc4cc(-c5cc[nH]n5)ccc4c3[nH]2)n1 [Example 499] | – | – | – | > 100 µM | > 100 µM | 1.34 µM | –
7 | Nc1nc2cc(-c3cc[nH]n3)ccc2c2[nH]c(CN3CCCC3)cc12 [Example 476] | – | – | – | > 100 µM | > 100 µM | 0.51 µM | –
8 | Nc1nc2cc(-c3cc[nH]n3)ccc2c2nn(C[C@H](O)CO)cc12 [Example 364] | > 100 µM | > 100 µM | 1.47 µM | – | – | – | –
9 | COCCn1cc2c(N)nc3cc(-c4cc[nH]n4)c(F)cc3c2n1 [Example 406] | – | – | – | > 100 µM | > 100 µM | 0.45 µM | –
10 | Nc1nc2cc(-c3cc[nH]n3)ccc2c2[nH]c(CN[C@@H]3CCOC3)cc12 [Example 422] | – | – | – | > 100 µM | > 100 µM | 0.14 µM | –
11 | Nc1nc2cc(-c3cc[nH]n3)ccc2c2cn(CCCN3CCOCC3)nc12 [Example 27] | > 100 µM | > 100 µM | 0.43 µM | – | – | – | –
12 | Nc1nc2cc(-c3cc[nH]n3)ccc2c2nn(CCOCCO)cc12 [Example 309] | > 100 µM | > 100 µM | 0.75 µM | – | – | – | –
13 | Nc1nc2cc(-c3cc[nH]n3)ccc2c2nn(CCNC(=O)c3ccc(F)cn3)cc12 [Example 196] | > 100 µM | > 100 µM | 0.18 µM | – | – | – | –
14 | CC(C)(CO)n1cc2c(N)nc3cc(-c4cc[nH]n4)ccc3c2n1 [Example 407, 2-(4-amino-7-(1H-pyrazol-3-yl)-2H-pyrazolo[4,3-c]quinolin-2-yl)-2-methylpropan-1-ol, TFA] | – | – | – | > 100 µM | > 100 µM | – | 0.5 µM
15 | Nc1nc2cc(-c3cc[nH]n3)ccc2c2nn(CC3CC3(F)F)cc12 (stereo not drawn) [Example 386] | > 100 µM | > 100 µM | 0.21 µM | – | – | – | –
16 | Nc1nc2cc(-c3cc[nH]n3)ccc2c2nn(CCCOC(F)(F)F)cc12 [Example 350] | > 100 µM | > 100 µM | 0.35 µM | – | – | – | –
17 | Cc1cc(Cn2cc3c(n2)c(N)nc2cc(-c4cc[nH]n4)ccc23)no1 [Example 173] | > 100 µM | 1 to 20 µM | 0.21 µM | – | – | – | –
18 | Nc1nc2cc(-c3cc[nH]n3)ccc2c2cn(Cc3ccccn3)nc12 [Example 25] | > 100 µM | > 100 µM | 0.26 µM | – | – | – | –
19 | Nc1nc2cc(-c3cc[nH]n3)ccc2c2nn(CCc3c[nH]cn3)cc12 [Example 361] | > 100 µM | > 100 µM | 0.19 µM | – | – | – | –
20 | Cc1cccc(OCCCn2cc3c(n2)c(N)nc2cc(-c4cc[nH]n4)ccc23)c1 [Example 8] | > 100 µM | > 100 µM | 0.89 µM | – | – | – | –

Now from value to molecule:

Row | EC50 (TLR7; activity range class) | EC50 (TLR8; activity range class) | EC50 (THP-1 cells; [1]) | EC50 (TLR7; activity range) | EC50 (TLR8; activity range) | EC50 (THP-1 cells; [2]) | EC50 (THP-1 cells; IL-1β production, human cells) | Structure (SMILES)
21 | > 100 µM | > 100 µM | 1.65 µM | – | – | – | – | CCN(Cc1nc2c(N)nc3cc(-c4ccn[nH]4)ccc3c2s1)C(C)=O [Example 140, N-{[4-amino-7-(1H-pyrazol-3-yl)-[1,3]thiazolo[4,5-c]quinolin-2-yl]methyl}-N-ethylacetamide]
22 | > 100 µM | > 100 µM | 0.2 µM | – | – | – | – | COCCCCn1cc2c(N)nc3cc(-c4cc[nH]n4)ccc3c2n1 [Example 218]
23 | – | – | – | > 100 µM | > 100 µM | 0.94 µM | – | CC(C)NC(=O)C(C)n1cc2c(N)nc3cc(-c4ccn[nH]4)ccc3c2n1 (stereo not drawn) [Example 569]
24 | > 100 µM | > 100 µM | 4.38 µM | – | – | – | – | CC(=O)N1CCOCC1Cn1cc2c(N)nc3cc(-c4ccn[nH]4)ccc3c2n1 (stereo not drawn) [Example 269]
25 | – | – | – | > 100 µM | > 100 µM | 7.94 µM | – | CC(C)(Cn1cc2c(N)nc3cc(-c4ccn[nH]4)ccc3c2n1)C(=O)NCCO [Example 594]
26 | – | – | – | > 100 µM | > 100 µM | 5.3 µM | – | CN(CCO)C(=O)Cn1cc2c(n1)c(N)nc1cc(-c3cc[nH]n3)ccc12 [Example 547]
27 | – | – | – | > 100 µM | > 100 µM | 4.18 µM | – | CC(C(=O)NCc1cccnc1)n1cc2c(N)nc3cc(-c4ccn[nH]4)ccc3c2n1 (stereo not drawn) [Example 565]
28 | > 100 µM | > 100 µM | 0.1 µM | – | – | – | – | CC(O)Cn1cc2c(N)nc3cc(-c4ccn[nH]4)ccc3c2n1 (stereo not drawn) [Example 282]
29 | – | – | – | > 100 µM | > 100 µM | 5.13 µM | – | CC(C(=O)N1CCOCC1)n1cc2c(N)nc3cc(-c4ccn[nH]4)ccc3c2n1 (stereo not drawn) [Example 570]
30 | > 100 µM | > 100 µM | 0.59 µM | – | – | – | – | NC(=O)CCn1cc2c(n1)c(N)nc1cc(-c3ccn[nH]3)ccc12 [Example 189]
31 | – | – | – | > 100 µM | > 100 µM | 0.23 µM | – | C[C@H](CO)Cn1cc2c(n1)c(N)nc1cc(-c3cc[nH]n3)ccc12 [Example 399]
32 | > 100 µM | > 100 µM | 1.07 µM | – | – | – | – | CC(C)(N)Cn1cc2c(N)nc3cc(-c4ccn[nH]4)ccc3c2n1 [Example 267]
33 | > 100 µM | > 100 µM | 1.44 µM | – | – | – | – | Nc1nc2cc(-c3cc[nH]n3)ccc2c2cn(CCNC(=O)COCC(F)(F)F)nc12 [Example 178]
34 | > 100 µM | > 100 µM | 0.19 µM | – | – | – | – | Nc1nc2cc(-c3cc[nH]n3)ccc2c2nn(CCF)cc12 [Example 321]
35 | > 100 µM | > 100 µM | 0.4 µM | – | – | – | – | Nc1nc2cc(-c3cc[nH]n3)ccc2c2nn(CCCO)cc12 [Example 215]
36 | > 100 µM | > 100 µM | 0.6 µM | – | – | – | – | CCN1CCCC1Cn1cc2c(N)nc3cc(-c4ccn[nH]4)ccc3c2n1 (stereo not drawn) [Example 274]
